Measurements as given in patent US20150291597A1, “NOVEL ORALLY BIOAVAILABLE BREATHING CONTROL MODULATING COMPOUNDS, AND METHODS OF USING SAME” (Galleon Pharmaceuticals, Inc., priority 2012, published 2015).
“Also recorded” adds a separate entry of the source. Where a name gives a salt, the structure may show the parent alone.

How the values were obtained:
[1] = Solubility of cyanuric chloride in various solvents; type: physicochemical; conditions: 10 g in 50 mL, sonicated 1 h
Protocol: The solubility of cyanuric chloride was examined as a way to limit its reactivity and the formation of undesired by-products. Cyanuric chloride (10 g) was mixed with 50 mL of indicated solvent (Table 22) and sonicated for 1 h with occasional swirling. If solid material remained as a suspension, it was filtered off and weighed.

rat = assay: Minute volume and mean blood pressure in the rat upon oral dosing (plethysmography, telemetry); type: in vivo, Male Sprague Dawley rats; conditions: 20 mg/kg PO
Protocol: Compounds were administered orally to rat and evaluated for effects on ventilatory and cardiovascular parameters.
Male Sprague Dawley rats (0.30-0.38 kg, n=4) were surgically implanted with ECG/blood pressure telemeters (Telemetry Research, Inc., Auckland, New Zweland) prior to data collection. The animals were acclimated to plethysmography chambers for a minimum period of 60 minutes. After this time, test compound (20 mg/kg, PO) or vehicle (0.9% saline) was administered by oral gavage. Respiratory and cardiovascular data were collected immediately thereafter for a period of 3 h using plethysmography (Buxco, Inc.) and telemetry (LabChart data acquisition software, AD instruments, Inc.). Each rat received test compound and vehicle during the course of the study and thus each animal served as its own control. Vehicle effects were subtracted from drug response (Drug-Veh) and the difference was reported as a mean percent (%) change over time±SE.

[2] = test system: rats chronically treated with morphine; assay: Apnea, sleep architecture and ventilatory response in rats chronically treated with morphine; type: in vivo, Adult male lean Zucker rats; conditions: 7 mg/kg PO, versus vehicle
Protocol: The objective of this study was to quantify the effects of select compounds of this invention on apnea, ventilation and sleep structure in a rat model. The study consisted of two treatment conditions: (1) chronic morphine and test compound, such as Compound 5b administered orally (7 mg/kg, PO), and (2) chronic morphine and oral vehicle. Adult male lean Zucker rats were anesthetized for electroencephalogram (EEG) and electromyogram (EMG) telemeter implantation. At least 1 week was permitted post-surgery before animals were used further. Morphine sulfate was added to the drinking water of singly housed rats beginning with 0.1 mg/ml morphine and increasing the concentration in increments so that a final concentration of 0.6 mg/ml was achieved within 2 weeks. All respiratory measurements were made while animals were unrestrained in whole-body plethysmography chambers to permit animals to sleep and move freely. To avoid eliciting withdrawal, morphine water was continuously available during each plethysmography experiment. Minute volume and the number of central sleep apneas (CSA) were measured during all treatment conditions. A period of at least 1 to 1.5 h was permitted for animals to acclimate to the chamber before data collection began. The biopotential telemeters and their receivers were placed directly under the plethysmographic chambers and were used to continuously to capture EEG, EMG, and body temperature signals. Only data collected between the hours of 10 am to 4:30 pm were used in the final analysis to control for the effects of circadian rhythm on breathing.
Compound 5b (7 mg/kg) or an equivalent volume of vehicle was administered via an oral gavage tube at 12 pm. Data collected between 10 am and 12 pm represented baseline (pre-drug) conditions. Data collected between 12 pm and 4:30 pm represented post-drug conditions. Analyses of the EEG and EMG waveforms for the purpose of staging sleep-wake behavior in rats as awake, NREM sleep, and REM sleep were based on previous sleep studies involving rodents. Central apneas were defined as a respiratory cycle period that was more than or equal to twice the average cycle period during baseline recordings, which is consistent with how others have defined central apneas in rodents. Percent time in each sleep-wake state, minute volume, and central sleep apnea counts were compared between treatment groups using a two-way ANOVA (factors: drug treatment and time). Breathing data during wakefulness was not analyzed because movement prevents measurement of accurate volumes when using whole-body plethysmography. When differences were detected with ANOVA, Student-Neuman-Keuls post hoc tests were run for all main effects and interactions. Differences were considered significant when p<0.05. Values are expressed as means±SE.

carotid body = assay: Carotid sinus nerve transection (CSNTx) in urethane anesthetized rats, minute volume; type: in vivo, adult male Sprague Dawley rats
Protocol: The objective of this study was to assess the role of carotid body sinus nerve activity on ventilation, as measured by minute volume, in rats treated with compounds of this invention, such as Compound 5b, versus a saline-treated group. Urethane anesthetized adult male Sprague Dawley rats and tracheal spirometry (pneumotachometry) techniques were used (Example 56). Vehicle (saline) and Compound 5b (0.1 and 0.3 mg/kg) were administered as IV boluses to 5 rats. The carotid sinus nerves were isolated in the neck and transected thereby denervating both carotid bodies. Vehicle and Compound 5b were re-administered IV. Animals were exposed to low inspired O2 (hypoxia) to confirm functionally complete nerve transections. The change in minute volume ΔVE (% of baseline above baseline) in response to saline/Compound 5b before and after carotid body denervation was measured.

[3] = Solubility of the hydrogen sulfate salt in solvents; type: physicochemical
anesthetized rats = assay: Anesthetized rat spirometry screening assay (respiratory rate, tidal volume, minute volume; IV bolus); type: in vivo; conditions: 0.3 mg/kg IV bolus
Source text: Anesthetized rats provide a quick method of screening compounds for respiratory and cardiovascular activity. In contrast to the conscious rat model, this model offers an experimental set up with less variation in the baseline cardiovascular and respiratory measures. Compounds screened in this assay may be examined in a conscious rat model.
Rats were initially anesthetized with 3% isoflurane (inhaled) and femoral artery and vein cannulas were surgically inserted. Once cannulated, the rats were transitioned to urethane anesthesia (1.5 g/kg; i.v.) and a tracheal cut-down was performed. After placing the tracheal cannula, it was connected to a pneumotach to record respiratory airflow from which respiratory rate (RR), tidal volume (VT), and their product minute volume were derived. After the surgical preparation was complete, animals were allowed to stabilize for 30 minutes while respiratory rate, tidal volume, minute volume, blood pressure and heart rate were recorded continuously. Arterial blood gases (ABG) were obtained from arterial blood collected from the femoral artery. ABG measurements were taken before and 6 minutes after vehicle and each dose of compound administered. Compounds being screened were administered via bolus injections through the venous cannula followed by a saline flush (total time of administration is approximately 30 seconds), and the animal was monitored for at least 6 minutes for changes in cardiovascular efforts. Compounds were prepared in formulations identified to ensure optimal solubility. As such, vehicle controls were matched for the formulation of each compound tested. Dosing of the compound being screened was 0.1 and 0.3 mg/kg. The next dose was not administered until all cardiovascular and respiratory measures had returned to baseline levels. The positive control compounds used were N-[4,6-di-(n-propylamino)-[1,3,5]triazin-2-yl]-O,N-dimethyl-hydroxylamine or N-[2,6-di-(n-propylamino)-[1,3]pyrimidin-4-yl]-O,N-dimethyl-hydroxylamine, both administered at the end of each screening experiment (0.3 mg/kg dose) to validate the experiment and also to serve as a measure with which the compound being screened could be compared.
Data were analyzed by collecting cardiovascular and respiratory data in 30 second averages (BINs). Data were plotted 2 minutes before challenge and then 6 minutes after challenge.
FIGS. 2A-2F summarize the effects of individual compounds on peak minute ventilation (increase in VE), overall increase in 2 minute area under the curve (AUC) which is a cumulative measure of effect, along with compound stability (half-life) in rat and human microsomes.

## Clc1nc(Cl)nc(Cl)n1 [cyanuric chloride]
[1]; Acetone, 0 °C
  Solubility of cyanuric chloride: partial crystallization
[1]; Acetone, r.t.
  Solubility of cyanuric chloride: soluble
[1]; DMAc, 0 °C
  Solubility of cyanuric chloride: soluble
[1]; DMAc, r.t.
  Solubility of cyanuric chloride: soluble
[1]; DMF, 0 °C
  Solubility of cyanuric chloride: decomposition
[1]; DMF, r.t.
  Solubility of cyanuric chloride: decomposition
[1]; DMSO, 0 °C
  Solubility of cyanuric chloride: decomposition
[1]; DMSO, r.t.
  Solubility of cyanuric chloride: decomposition
[1]; Dioxane, 0 °C
  Solubility of cyanuric chloride: soluble
[1]; Dioxane, r.t.
  Solubility of cyanuric chloride: soluble
[1]; IPA, 0 °C
  Solubility of cyanuric chloride: insoluble
[1]; MeCN, 0 °C
  Solubility of cyanuric chloride: insoluble
[1]; MeCN, r.t.
  Solubility of cyanuric chloride: 150 µg/mL
[1]; THF, 0 °C
  Solubility of cyanuric chloride: soluble
[1]; THF, r.t.
  Solubility of cyanuric chloride: soluble
[1]; Toluene, 0 °C
  Solubility of cyanuric chloride: soluble
[1]; Toluene, r.t.
  Solubility of cyanuric chloride: soluble

## C#CCNc1nc(N)nc(N(C)OC)n1 [Compound 132, N-(4-Amino-6-prop-2-ynylamino-[1,3,5]triazin-2-yl)-O,N-dimethyl-hydroxylamine]
other
  melting point: 172 to 174 °C

## C#CCON(C)c1nc(NCCC)nc(NCCC)n1.Cl
other
  melting point: 105 to 107 °C

## C#CCNc1nc(NCCC)nc(N(C)OC)n1 [Compound 5b, O,N-Dimethyl-N-[4-(n-propylamino)-6-(prop-2-ynylamino)-[1,3,5]triazin-2-yl]-hydroxylamine hydrogen sulfate]
rat
  duration of the increase in minute ventilation: 120 min
  increase in minute ventilation compared to baseline: approximately 50%
rat; during the period of increased ventilation
  effect on mean blood pressure: no significant effect
[2]
  central apneas during NREM sleep, percent change from baseline (pre-treatment): percent change (decrease) in apnea frequency was present
[2]; hydrogen sulfate
  NREM minute volume (VE): no statistically significant effects; also recorded: trend for an initial increase in minute volume between 0 to 60 min post-dose; also recorded: no discernible effect
  REM minute volume: no visible effects
  frequency of central apneas during NREM sleep: decreased apnea frequency at 120 min and 150 min post-gavage compared to vehicle; also recorded: decreased apnea frequency during NREM sleep compared to vehicle and the pre-treatment (baseline) values; also recorded: significantly reduces
  frequency of central apneas during REM sleep: did not visibly alter; also recorded: no visible effect; also recorded: does not reduce
Carotid body; 0.1 and 0.3 mg/kg IV bolus
  minute volume prior to carotid body denervation: dose-dependently increased minute volume
  ventilatory response after carotid sinus nerve transection: completely abolished the ventilatory response
Carotid body; IV bolus
  ventilatory response after SHAM surgery: no effect on the ventilatory response
[3]; MeOH
  solubility in MeOH: freely soluble
[3]; water
  solubility in water: freely soluble

## C#CCNc1nc(NCCC)nc(N(C)OC)n1
other
  melting point: 79 to 81 °C

## C#CCNc1nc(NCCC)nc(N(C)OC)n1.O=C(O)/C=C/C(=O)O
other
  melting point: 153 to 155 °C

## C#CCNc1nc(NCCC)nc(N(C)OC)n1.O=C(O)CC(=O)O
other
  melting point: 113 to 115 °C

## C#CCNc1nc(NCCC)nc(N(Cc2ccc(F)cc2)OC)n1 [Compound 9a, N-(4-Fluorobenzyl)-O-methyl-N-[4-(n-propylamino)-6-(prop-2-ynylamino)-[[1,3,5]triazin-2-yl]-hydroxylamine hydrochloride]
Anesthetized rats
  duration of the increase in minute ventilation: approximately 2 minutes
  increase in minute ventilation above baseline values: up to 110%
  increase in respiratory rate: up to 24%
  increase in tidal volume: up to 72%

## C#CCN(OC)c1nc(NCCC)nc(NCCC)n1.Cl
other
  melting point: 110 to 113 °C

## C#CCNc1nc(NC)nc(NCCC)n1.Cl [Compound 7a, N-Methyl-N′-n-propyl-N″-prop-2-ynyl-[1,3,5]triazine-2,4,6-triamine hydrochloride]
Anesthetized rats
  duration of the increase in minute ventilation: approximately 2 minutes
  increase in minute ventilation above baseline values: up to 85%
  increase in respiratory rate: up to 46%
  increase in tidal volume: up to 27%

## C#CCNc1nc(NCCC)nc(N(C)OC)n1.O=C(O)/C=C\C(=O)O
other
  melting point: 123 to 125 °C

## C#CCNc1nc(N(C)OC)c2cc[nH]c2n1.Cl
other
  melting point: 182 to 184 °C

## C#CCNc1nc(NCCC)nc(N(C)OCC#C)n1.Cl
other
  melting point: 84 to 86 °C

## C#CCNc1nc(NC2CCC2)nc(N(C)OC)n1.Cl
other
  melting point: 105 to 107 °C
